From patent publication US20190256827A1, “EPIGENOME EDITING SYSTEMS AND METHODS” (STC.UNM, priority 2017, published 2019)

System: HBA locus in HEK293T cells
Assay: ChIP-qPCR of FLAG-ABI-P300 and H3K27Ac at the HBA locus
Assay type: cell-based, human
Conditions: HBA sgRNAs; ABA treatment for 48 hours
Procedure: To determine if the new method can be used to modify H3K27Ac at other gene loci, sgRNAs were designed that target the promoter region of other genes with low expression levels in HEK293T cells, including GRM2, HBA and MYOD1 (Table 1).
Human embryonic kidney cell HEK293T (American Type Culture Collection, Manassas, Va.) was cultured in Dulbecco's modified Eagle's medium (DMEM) (Gibco) with 10% FBS (Atlanta Biologicals), 1× GlutaMax (Gibco, Thermo Fisher Scientific, Inc., Waltham, Mass.), and 1× penicillin/streptomycin (Pen/Strep; Gibco, Thermo Fisher Scientific, Inc., Waltham, Mass.). Cells (100,000/ml) were plated in 24-well or 10-cm cell culture plate the day before transfection. For each well of 24-well plate transfection, 500 ng of dCas9-PYL-HA, 420 ng of FLAG-ABI-P300, and a total amount of 200-ng mix of gRNAs, with a 50-ng per each gRNA, were mixed with 50×(v/w) Opti-MEM (Gibco, Thermo Fisher Scientific, Inc., Waltham, Mass.), then incubate with the same volume of 3 μg PEI-Opti-MEM solution for 20 minutes at room temperature. Then, 100 μL of PEI-combined plasmids were added to every single well of 24-well plate and cultured for 24 hours before experiments were performed. For a 10 cm plate, 1 mL of PEI-combined plasmids were needed. After six hours transfection, cells were washed and incubated for another 1-72 hours before experiments were performed. […]

## CC1=CC(=O)CC(C)(C)[C@@]1(O)/C=C/C(C)=C\C(=O)O [ABA, abscisic acid]
  enrichment of FLAG-ABI-P300 at the HBA locus: causes the enrichment
  enrichment of H3K27Ac at the HBA locus: causes the enrichment
